According to US12570643B2, “3-aryloxy-3-five-membered heteroaryl propylamine compound, and crystal form and use thereof” (Shanghai Leado Pharmatech Co. Ltd., priority 2019, dated 2026):

Tested on: postoperative pain model in rat
Assay: Postoperative pain model in rat, mechanical hyperalgesia test
Format: in vivo
Conditions: 10 mg/kg intramuscular injection
Description: Injection of compound I-1: 36.13 mg of compound I-1 prepared in Example 2 was weighed and added into 3.140 mL of normal saline, and well mixed by vortex;
The solvent of the test compound I-1 was normal saline, the administration dose was 10 mg/kg, and the administration method was intramuscular injection. 36.13 mg of the compound I-1 was weighed and added into 3.140 mL normal saline, and well mixed by vortex. The reference compound used in the experiment was bupivacaine injection, purchased from Shanghai Zhaohui Pharmaceutical Co., Ltd., in a dose of 10 mg/kg via intramuscular injection.
Aseptic operation was performed during surgery, surgical instruments (scissors, forceps, scalpel, surgical cotton, suture thread) were disinfected before the operation. The rats were anesthetized with sodium pentobarbital (50 mg/kg, intraperitoneal injection), and the toes of the rats were squeezed to confirm that the animals were completely anesthetized before the surgery. Ophthalmic ointment was applied to the animal's eyes to prevent the animal's cornea from drying out. Iodophor and 70% ethanol were used to disinfect the skin of the surgery area on the sole of the left hind foot three times, and the surgery was started after the skin was dried. Starting at 0.5 cm from the heel, a 1 cm long incision was made longitudinally toward the toe. After cutting the skin, the flexor digitorum brevis was lifted to make longitudinal blunt injury. After pressing to stop the bleeding, the wound was sutured. The surgical instruments were cleaned and sterilized with hot bead sterilizer. After the surgery, the animals were placed on an electric blanket and injected subcutaneously with 5 mL normal saline to prevent dehydration. When the animal was completely awake (free to move), put the animal back into the cage. […]
The rat was placed alone in a plexiglass box with a grid on the bottom of the box to ensure that the rat's feet can be tested. […] During the test, the animal's rapid foot shrinkage was recorded as a pain response. The animal's foot shrinkage when the test fiber left the animal's skin was also recorded as a pain response. If the animal moved or walked, it would not be recorded as the pain response, the test should be repeated. […] The mechanical hyperalgesia test results are recorded in the table of FIG. 10, in which pain response is indicated with an “x” and no pain response is indicated with an “o.”
Mechanical hyperalgesia was expressed as the paw withdrawal threshold (PWT) in the behavioral test of rats, which was calculated according to the following equation: 50% response threshold (g)=(10(Xf+k))/10,000 • Xf=the final test fiber value used in the test • K=table value (Chaplan et al. 1994, page 62) • □=Average difference 5. […]

SMILES: CNCC[C@@H](Oc1cccc2ccoc12)c1cccs1 [Compound I-1, (R)-3-(benzofuran-7-yloxy)-N-methyl-3-(thiophen-2-yl)propan-1-amine]
- PWT (1 hour after administration, Normal Saline 3.561): 5.885 g
- PWT (g) (2 hours after administration, Normal Saline 3.382): 5.135. g
